Test results as given in US7396837B2, “Antitumoral analogs of lamellarins” (Pharma Mar, S.A.U., priority 2002, dated 2008).
Like-named read-outs stand apart in the source and are kept apart here.

Columns and labels:
[1] = test system: K-562; test: SRB colorimetric cell growth inhibition assay, K-562; assay type: cell-based; details: Homo sapiens, K562, K-562; for GI50: GI=growth inhibition, read-out: GI50 K-562; for CC50: read-out: LC50 K-562; for IC (TGI): read-out: TGI K-562
How it was run: (§1)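 Read-out: sulforhodamine B colorimetry of surviving cell mass after continued exposure of human tumour lines to sample. Values are means ± SD of three wells, expressed as GI, TGI or LC.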

[2] = test system: A-549; test: SRB colorimetric cell growth inhibition assay, A-549; assay type: cell-based; details: Homo sapiens, A549, A-549; for GI50: GI=growth inhibition, read-out: GI50 A-549; for CC50: read-out: LC50 A-549; for IC (TGI): read-out: TGI A-549
How it was run: as §1

[3] = test system: SK-MEL-28; test: SRB colorimetric cell growth inhibition assay, SK-MEL-28; assay type: cell-based; details: Homo sapiens, SK-MEL-28, MEL-28; for GI50: GI=growth inhibition, read-out: GI50 MEL-28; for CC50: LC=cell killing (cytotoxic effect), read-out: LC50 MEL-28; for IC (TGI): read-out: TGI MEL-28
How it was run: as §1

[4] = test system: HT-29; test: SRB colorimetric cell growth inhibition assay, HT-29; assay type: cell-based; details: Homo sapiens; for GI50: GI=growth inhibition, read-out: GI50 HT-29; for CC50: read-out: LC50 HT-29; for IC (TGI): read-out: TGI HT-29
How it was run: as §1

[5] = test system: LoVo; test: SRB colorimetric cell growth inhibition assay, LoVo; assay type: cell-based; details: Homo sapiens; for GI50: GI=growth inhibition, read-out: GI50 LOVO; for CC50: read-out: LC50 LOVO; for IC (TGI): read-out: TGI LOVO
How it was run: as §1

[6] = test system: LoVo-Dox; test: SRB colorimetric cell growth inhibition assay, LoVo-Dox (MDR); assay type: cell-based; details: Homo sapiens, LOVO-DOX; for GI50: GI=growth inhibition, read-out: GI50 LOVO-DOX; for CC50: read-out: LC50 LOVO-DOX; for IC (TGI): read-out: TGI LOVO-DOX
How it was run: as §1

[7] = test system: DU-145; test: SRB colorimetric cell growth inhibition assay, DU-145; assay type: cell-based; details: Homo sapiens; for GI50: GI=growth inhibition, read-out: GI50 DU-145; for CC50: LC=cell killing (cytotoxic effect), read-out: LC50 DU-145; for IC (TGI): read-out: TGI DU-145
How it was run: as §1

[8] = test system: LNCaP; test: SRB colorimetric cell growth inhibition assay, LNCaP; assay type: cell-based; details: Homo sapiens, LNCaP, LN-caP; for GI50: GI=growth inhibition, read-out: GI50 LN-caP; for CC50: LC=cell killing (cytotoxic effect), read-out: LC50 LN-caP; for IC (TGI): read-out: TGI LN-caP
How it was run: as §1

[9] = test system: SK-BR-3; test: SRB colorimetric cell growth inhibition assay, SK-BR-3; assay type: cell-based; details: Homo sapiens; for GI50: GI=growth inhibition, read-out: GI50 SK-BR-3; for CC50: LC=cell killing (cytotoxic effect), read-out: LC50 SK-BR-3; for IC (TGI): read-out: TGI SK-BR-3
How it was run: as §1

[10] = test system: IGROV; test: SRB colorimetric cell growth inhibition assay, IGROV; assay type: cell-based
How it was run: as §1

[11] = test system: IGROV-ET; test: SRB colorimetric cell growth inhibition assay, IGROV-ET (ET-743 resistant); assay type: cell-based; details: Homo sapiens, IGROV-ET; for GI50: GI=growth inhibition, read-out: GI50 IGROV-ET; for CC50: LC=cell killing (cytotoxic effect), read-out: LC50 IGROV-ET; for IC (TGI): read-out: TGI IGROV-ET
How it was run: as §1

[12] = test system: PANC-1; test: SRB colorimetric cell growth inhibition assay, PANC-1; assay type: cell-based; details: Homo sapiens; for GI50: GI=growth inhibition, read-out: GI50 PANC-1; for CC50: read-out: LC50 PANC-1; for IC (TGI): read-out: TGI PANC-1
How it was run: as §1

[13] = molecular target: T1, human topoisomerase I (Homo sapiens, UniProt P11387); test: Topoisomerase I DNA relaxation assay (supercoiled plasmid DNA); assay type: biochemical; details: supercoiled plasmid DNA, each compound tested at 1 μM, agarose gel with ethidium bromide
T1 sequence (P11387 1-765): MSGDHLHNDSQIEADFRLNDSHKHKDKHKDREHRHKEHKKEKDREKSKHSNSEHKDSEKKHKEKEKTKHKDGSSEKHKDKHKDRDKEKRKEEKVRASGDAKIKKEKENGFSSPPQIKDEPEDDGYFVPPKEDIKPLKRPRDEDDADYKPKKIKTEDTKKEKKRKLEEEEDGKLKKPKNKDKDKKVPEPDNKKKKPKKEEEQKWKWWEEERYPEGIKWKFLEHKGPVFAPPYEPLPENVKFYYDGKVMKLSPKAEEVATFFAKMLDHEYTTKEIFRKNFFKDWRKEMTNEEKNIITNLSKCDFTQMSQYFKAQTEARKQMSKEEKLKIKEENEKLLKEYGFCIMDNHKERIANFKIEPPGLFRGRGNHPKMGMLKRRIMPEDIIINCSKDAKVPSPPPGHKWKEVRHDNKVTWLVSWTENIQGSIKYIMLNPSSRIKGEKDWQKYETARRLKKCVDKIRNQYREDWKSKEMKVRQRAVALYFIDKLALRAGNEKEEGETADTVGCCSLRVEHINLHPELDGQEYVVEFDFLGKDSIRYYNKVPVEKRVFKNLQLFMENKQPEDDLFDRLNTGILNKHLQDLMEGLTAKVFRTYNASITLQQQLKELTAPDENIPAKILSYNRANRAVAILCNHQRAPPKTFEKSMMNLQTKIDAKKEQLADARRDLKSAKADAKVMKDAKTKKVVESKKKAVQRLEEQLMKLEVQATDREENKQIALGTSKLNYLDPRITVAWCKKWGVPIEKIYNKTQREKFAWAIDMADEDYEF
How it was run: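 Test compounds (1 μM each) were present during topoisomerase I relaxation of supercoiled plasmid DNA. Relaxation was assessed on ethidium bromide-stained agarose gels.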

[14] = cell killing (cytotoxic effect)
[15] = total growth inhibition (cytostatic effect)
[16] = TGI=total growth inhibition (cytostatic effect)
[17] = Homo sapiens, IGROV; LC=cell killing (cytotoxic effect); read-out: LC50 IGROV
[18] = LC=cell killing (cytotoxic effect)

COc1cc(-c2c3n(c4c(=O)oc5cc(O)c(OC)cc5c24)CCc2cc(O)c(OC)cc2-3)ccc1O [Compound 109]
GI50 [1]: 0.425 µM | CC50 [1, 14]: 19.9 µM | IC (TGI) [1, 15]: 19.9 µM | GI50 [2]: 5.94 µM | CC50 [2, 14]: 19.9 µM | IC (TGI) [2, 15]: 14.1 µM | GI50 [3]: 0.885 µM | CC50 [3]: 10.8 µM | IC (TGI) [3, 16]: 2.57 µM | GI50 ([4]; HT-29, HT-29): 4.81 µM | CC50 ([4]; HT-29, HT-29, cell killing (cytotoxic effect)): 19.9 µM | IC (TGI) ([4]; HT-29, HT-29, total growth inhibition (cytostatic effect)): 19.9 µM | GI50 ([5]; LoVo): 0.917 µM | CC50 ([5]; LoVo, cell killing (cytotoxic effect)): 19.9 µM | IC (TGI) ([5]; LoVo, total growth inhibition (cytostatic effect)): 4.07 µM | GI50 [6]: 5.64 µM | CC50 [6, 14]: 19.9 µM | IC (TGI) [6, 15]: 13.5 µM | GI50 ([7]; DU-145, DU-145): 2.99 µM | CC50 ([7]; DU-145, DU-145): 19.9 µM | IC (TGI) ([7]; DU-145, DU-145, TGI=total growth inhibition (cytostatic effect)): 15.4 µM | GI50 [8]: 1.16 µM | CC50 [8]: 19.9 µM | IC (TGI) [8, 16]: 1.99 µM | GI50 ([9]; SK-BR-3, SK-BR-3): 3.45 µM | CC50 ([9]; SK-BR-3, SK-BR-3): 19 µM | IC (TGI) ([9]; SK-BR-3, SK-BR-3, TGI=total growth inhibition (cytostatic effect)): 8.1 µM | GI50 ([10]; Homo sapiens, IGROV; GI=growth inhibition; read-out: GI50 IGROV): 1.8 µM | CC50 [10, 17]: 19.9 µM | IC (TGI) ([10]; Homo sapiens, IGROV; TGI=total growth inhibition (cytostatic effect); read-out: TGI IGROV): 6.08 µM | GI50 [11]: 9.67 µM | CC50 [11]: 19.9 µM | IC (TGI) [11, 16]: 19.9 µM | GI50 ([12]; PANC-1, PANC-1): 5.7 µM | CC50 ([12]; PANC-1, PANC-1, cell killing (cytotoxic effect)): 19.9 µM | IC (TGI) ([12]; PANC-1, PANC-1, total growth inhibition (cytostatic effect)): 19.9 µM | stimulation of DNA cleavage by topoisomerase I / inhibition of topoisomerase I (nicked DNA band) in DNA relaxation assay [13]: inactive

COc1cc(-c2c3c4cc(OC)c(OC(=O)[C@@H](NC(=O)OC(C)(C)C)C(C)C)cc4oc(=O)c3n3ccc4cc(OC(=O)[C@@H](NC(=O)OC(C)(C)C)C(C)C)c(OC)cc4c23)ccc1OC(=O)[C@@H](NC(=O)OC(C)(C)C)C(C)C [Compound 38]
GI50 [1]: 0.0413 µM | CC50 [1, 18]: 9.11 µM | IC (TGI) [1, 16]: 1.15 µM | GI50 [2]: 1.34 µM | CC50 [2, 18]: 9.11 µM | IC (TGI) [2, 16]: 4.78 µM | GI50 [3]: 0.165 µM | CC50 [3]: 9.11 µM | IC (TGI) [3, 15]: 0.52 µM | CC50 ([4]; HT-29, HT-29, LC=cell killing (cytotoxic effect)): 9.11 µM | GI50 ([4]; HT-29): 0.0324 µM | IC (TGI) ([4]; HT-29, TGI=total growth inhibition (cytostatic effect)): 0.0911 µM | CC50 ([5]; LoVo, LC=cell killing (cytotoxic effect)): 9.11 µM | GI50 ([5]; LOVO): 9.11 µM | IC (TGI) ([5]; LOVO, TGI=total growth inhibition (cytostatic effect)): 9.11 µM | GI50 [6]: 9.11 µM | CC50 [6, 18]: 9.11 µM | IC (TGI) [6, 16]: 9.11 µM | CC50 ([7]; DU-145, DU-145): 9.11 µM | GI50 ([7]; DU-145): 0.0512 µM | IC (TGI) ([7]; DU-145, total growth inhibition (cytostatic effect)): 9.11 µM | GI50 [8]: 0.152 µM | CC50 [8]: 3.9 µM | IC (TGI) [8, 15]: 0.509 µM | CC50 ([9]; SK-BR-3, SK-BR-3): 9.11 µM | GI50 ([9]; SK-BR-3): 0.448 µM | IC (TGI) ([9]; SK-BR-3, total growth inhibition (cytostatic effect)): 4.08 µM | CC50 [10, 17]: 9.11 µM | GI50 ([10]; Homo sapiens; IGROV; GI=growth inhibition; read-out: GI50 IGROV): 0.244 µM | IC (TGI) ([10]; Homo sapiens; IGROV; total growth inhibition (cytostatic effect); read-out: TGI IGROV): 1.07 µM | GI50 [11]: 1.29 µM | CC50 [11]: 9.11 µM | IC (TGI) [11, 15]: 4.51 µM | CC50 ([12]; PANC-1, PANC-1, LC=cell killing (cytotoxic effect)): 9.11 µM | IC (TGI) ([12]; PANC-1, PANC-1, TGI=total growth inhibition (cytostatic effect)): 9.11 µM | GI50 ([12]; PANC-1): 0.499 µM | stimulation of DNA cleavage by topoisomerase I / inhibition of topoisomerase I (nicked DNA band) in DNA relaxation assay [13]: No effect
